In patent publication US12576059B2, “Methods and compositions for treatment of inflammatory disease” (priority 2021, dated 2026):

How the values were obtained:
[1] = system: LPS induced acute lung inflammation; experiment: Example 1: LPS induced acute lung inflammation, interalveolar septa distance; assay type: in vivo, mice
Excerpt: LPS administration is known to promote inflammation through various mechanisms including secretion of pro-inflammatory cytokines, eicosanoids and induction of ROS. This example employed LPS to ascertain the extent of inflammation arising from ROS induced oxidation of H-AA versus D-AA in the lungs of mice. Specifically, four groups of mice were used. The first group was control mice treated with H-LA control mice. The second group of mice received a 6-week course of D-LA. It is understood that in vivo conversion of a portion of both H-LA and D-LA occurs to provide for AA and 13,13-D2-AA respectively. The third group of mice received a 6-week course of H-AA. The fourth group of mice received a 6-week course of D-AA. All groups then received a single intranasal administration of LPS to induce acute lung inflammation. The degree of the inflammatory response was based on the interalveolar septa distance where the larger the distance of the septa, the greater the degree of inflammation. The animals were sacrificed and the interalveolar septa distance was measured. Table 1 provides an average degree of spatial distance for the interalveolar septa for the results of all groups.

healthy mice = details: mouse, in vivo
Procedure: Mouse diet was from Research Diets (New Brunswick, NJ) based on fat-free AIN-93G. Fat was added at 11.3% by weight total fat and 0.25% either normal H-AA or D-AA respectively (Table 5).
Male and Female BALB/c and C57BL/6 mice were provided with standard environmental conditions i.e., 22±1° C., 55±5% humidity and 12 h light/dark cycle with free food and water access. At the age of six weeks, animals were split into 8 groups (n=160 total, 20 of each gender) and were continuously fed ad libitum on the diet containing either H-AA or D-AA for 2, 4, 6 or 8 weeks at the daily rate of ca. 5 g of diet per mouse for the duration of the study. The other two groups of animals (n=40, 20 of each gender) received neither PUFA-enriched diets nor LPS served as controls. The body weight and food intake were measured once a week. After completing the appropriate diet course, half of the mice in each group (10 females and 10 males) (i) underwent the procedure of bronchoalveolar lavage (BAL) to accomplish cytological smears, (ii) were subjected to tissue harvesting and collection of colon contents (after humane euthanasia with lethal dose of sodium thiopental, 100 mg/kg intravenously). On the ninth week of this diet course, the other half of the group was administered 1 mg/kg of intranasal (IN) LPS from Escherichia coli O111:B4 (Sigma Aldrich) 24 hours prior to BAL and subsequent euthanasia. 40 D-AA fed animals (20 males, 20 females) were switched to the H-AA diet for washout experiments. […]
Lung, stomach and colon samples were fixed with 4% formaldehyde (freshly prepared from paraformaldehyde), paraffin embedded and cut into 2-4 μm sections. For routine histology, all fixed tissue sections were stained with hematoxylin-eosin (H&E). All slides were evaluated at 10 fields each using a Genetic Pro Bino light microscope (A) and photographed with a digital camera (Delta Optical). Stomach and colon tissue sections were analyzed for signs of active and chronic inflammation, formation of lymph follicles, and hyperplasia of epithelial cells. The severity of lung injury was scored according to lung pathological changes, including interalveolar and perivascular hemorrhages, peri-vascular and peribronchial infiltration, perivascular edema, thickness of alveolar wall, alveolar space value, and emphysematous transformations. Lung tissue samples were additionally stained with commercially available Martius Scarlet Blue (MSB) stain kit (Avantik, USA) for fibrin visualization. The presence of homogeneous fibrin masses of yellow, pink or red color in the lung blood vessels were interpreted as thrombotic masses. […]
Cell free BAL fluid supernatants as well as colon tissue samples were analyzed using commercially available Mouse IL-1B ELISA Kit (R&D systems, Lot P265854, USA) and the Biotek ELx-808 microplate reader (Biotek, USA) according to the instructions recommended by the manufacturer).

[2] = system: LPS induced acute lung inflammation; experiment: Example 1a: mouse model of lung inflammation (FIGS. 3-6, Table 4); assay type: in vivo, mice; details: for Alveolar lumen area (25%; 75%) / Partition thickness Me (25%; 75%): + LPS, median; for protective / therapeutic effect compared to other deuterated PUFAs: preliminary data (not shown)
Procedure: FIGS. 3-6 Groups of female (f) and male (m) mice received a 6-week course of dietary (H) AA or a 6-week course of deuterated arachidonic acid (D6-ARA, 15 mg/day) followed by single intranasal administration of LPS.
LPS treatment promotes inflammation through various mechanisms including secretion of pro-inflammatory cytokines, eicosanoids and induction of ROS. Following induction by the intranasal administration of LPS, an acute lung inflammation quickly follows. […] Such a pronounced inflammatory infiltration of the interalveolar septa contributed to their destruction and more frequent formation of emphysema foci in this group. […] (See FIGS. 3-6.)
The degree of alveolar lumen area changes in both groups of animals depended on gender. […]

SMILES: [2H]C([2H])(/C=C\CCCCC)/C=C\C([2H])([2H])/C=C\C([2H])([2H])/C=C\CCCC(=O)O [D-AA, 7,7,10,10,13,13-D6-arachidonic acid]
- Interalveolar space (average spatial distance for the interalveolar septa) ([1]; 6-week course, then single intranasal LPS): 4.1 μm
- reduction in the spatial distance for the interalveolar septa ([1]; D-LA relative to H-LA, comparator for D-AA not stated): ~60%
- alveolar spaces (healthy mice): No relevant changes
- average thickness of interalveolar septa, H-AA versus D-AA (healthy mice): did not significantly differ
- tolerability (healthy mice): well tolerated without apparent adverse reactions
- alveolar lumen area and thickness versus controls ([2]; 6-week course, 15 mg/day, then single intranasal LPS): consistent with controls
- Alveolar lumen area (25%; 75%) ([2]; females): 57.4 μm^2
- Partition thickness Me (25%; 75%) ([2]; females): 3.6 µm
- Alveolar lumen area (25%; 75%) ([2]; males): 112.1 μm^2
- Partition thickness Me (25%; 75%) ([2]; males): 5.55 µm
- protective / therapeutic effect compared to other deuterated PUFAs [2]: best protective effect
- protective / therapeutic effect compared to other deuterated PUFAs ([2]; listed as D6-AA): better therapeutic effect
